Results taken from publication PMC8509773, “3-Pyridinylidene Derivatives of Chemically Modified Lupane and Ursane Triterpenes as Promising Anticancer Agents by Targeting Apoptosis” (International Journal of Molecular Sciences, 2021).

Assays:
[1] = system: NCI-60 cancer cell line panel; assay: NCI-60 cancer cell line panel screening (whole panel / subpanels); assay type: cell-based; conditions: for Selectivity index (SI): full panel MG_MID / subpanel MG_MID
Protocol: At first, compounds were tested in a single high dose concentration regimen (10 µM) against a panel of sixty various cancer cell lines; the results of the screening are outlined in Table 1 in the form of percent growth (GP %) of treated cells versus untreated cells used as control, where negative numbers indicate cell kill. The experimental results of growth inhibition may range from 0 to 100 and indicate a cytostatic effect while negative values indicate cell death and thus a cytotoxic activity (for NCI data see Supplementary Material Figures S6–S12).
The selectivity index (SI) was calculated by dividing the full panel MG_MID60 (μM) of tested compounds by their individual subpanel MG_MID of the cell line (μM); it correlates directly to the selectivity of their anticancer activity (Table 3). […] By contrast, despite its strong antiproliferative effect, compound 7 acts with low selectivity against the various human tumor cell lines, the highest SI value being 1.73.
Compounds 1, 2, and 4–8 were tested at one dose assay (10^−5 M) toward a panel of approximately sixty cancer cell lines representing different cancer types: leukemia, melanoma, lung, colon, CNS, ovarian, renal, prostate, and breast cancers. Primary anticancer assays were performed according to the NCI protocol as described elsewhere (see, e.g., http://dtp.nci.nih.gov accessed on 16 October 2019). The compounds were added at a single concentration and the cell cultures were incubated for 48 h. The end point determinations were made with a protein binding dye, sulforhodamine B (SRB). The results for each compound are reported as the percent growth (GP %) of treated cells compared to untreated control cells (negative numbers indicate cell kill). Compounds with considerable activity against all tested human tumor cell lines (6 and 7) were selected for the advanced assay against a panel of approximately sixty tumor cell lines at 10-fold dilutions of five concentrations (100 µM, 10 µM, 1 µM, 0.1 µM, and 0.01 µM). The percentage of growth was evaluated spectrophotometrically versus controls not treated with test agents after 48-h exposure and using SRB protein assay to estimate cell viability or growth. Three antitumor activity dose–response parameters were calculated for each cell line: GI50—molar concentration of the compound that inhibits 50% net cell growth; TGI—molar concentration of the compound leading to the total inhibition; and LC50—molar concentration of the compound leading to 50% net cell death (presented in negative logarithm). Furthermore, mean graph midpoints (MG_MID) were calculated for each of the parameters, giving an average activity parameter over all cell lines for the tested compound. For the MG_MID calculation, insensitive cell lines were included with the highest concentration tested.

LOX IMVI = assay: NCI-60 SRB screening (one-dose and five-dose); assay type: cell-based, human; conditions: 48 h; for Growth Percent: 10 μM
In short: (§1)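 Cells received compound at one concentration for 48 h. Growth was read by sulforhodamine B protein staining, as percentage versus untreated controls. Mean graph midpoints averaged each parameter over all cell lines, with insensitive lines entered at the highest tested concentration.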

TK-10 = assay: NCI-60 SRB screening (one-dose and five-dose); assay type: cell-based, human; conditions: 48 h; for Growth Percent: TK-10, 10 μM
In short: as §1

NCI-H522 = assay: NCI-60 SRB screening (one-dose and five-dose); assay type: cell-based, human; conditions: 48 h; for Growth Percent: NCI-H522, 10 μM
In short: as §1

NCI/ADR-RES = assay: NCI-60 SRB screening (one-dose and five-dose); assay type: cell-based, human; conditions: 48 h; for Growth Percent: 10 μM
In short: (§2)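 After a 48-h incubation with compound, cellular protein was stained with SRB and growth estimated by spectrophotometry relative to untreated controls.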

SK-MEL-2 = assay: NCI-60 SRB screening (one-dose and five-dose); assay type: cell-based, human; conditions: 48 h; for Growth Percent: SK-MEL-2, 10 μM
In short: as §2

UO-31 = assay: NCI-60 SRB screening (one-dose and five-dose); assay type: cell-based, human; conditions: 48 h; for Growth Percent: UO-31, 10 μM
In short: as §2

M14 = assay: NCI-60 SRB screening (one-dose and five-dose); assay type: cell-based, human; conditions: 48 h; for Growth Percent: M14, 10 μM
In short: as §1

BT-549 = assay: NCI-60 SRB screening (one-dose and five-dose); assay type: cell-based, human; conditions: 48 h; for Growth Percent: BT-549, 10 μM
In short: as §1

CCRF-CEM = assay: NCI-60 SRB screening (one-dose and five-dose); assay type: cell-based, human; conditions: 48 h; for Growth Percent: 10 μM
In short: as §2

CAKI-1 = assay: NCI-60 SRB screening (one-dose and five-dose); assay type: cell-based, human; conditions: 48 h; for Growth Percent: CAKI-1, 10 μM
In short: as §2

KM-12 = assay: NCI-60 SRB screening (one-dose and five-dose); assay type: cell-based, human; conditions: 48 h; for Growth Percent: KM-12, 10 μM
In short: as §2

MDA-MB-231/ATCC = assay: NCI-60 SRB screening (one-dose and five-dose); assay type: cell-based, human; conditions: 48 h; for Growth Percent: 10 μM
In short: as §2

NCI-H322M = assay: NCI-60 SRB screening (one-dose and five-dose); assay type: cell-based, human; conditions: 48 h; for Growth Percent: 10 μM
In short: as §1

OVCAR-3 = assay: NCI-60 SRB screening (one-dose and five-dose); assay type: cell-based, human; conditions: 48 h; for Growth Percent: OVCAR-3, 10 μM
In short: as §2

NCI-H226 = assay: NCI-60 SRB screening (one-dose and five-dose); assay type: cell-based, human; conditions: 48 h; for Growth Percent: NCI-H226, 10 μM
In short: as §2

NCI-H460 = assay: NCI-60 SRB screening (one-dose and five-dose); assay type: cell-based, human; conditions: 48 h; for Growth Percent: NCI-H460, 10 μM
In short: as §2

NCI-H23 = assay: NCI-60 SRB screening (one-dose and five-dose); assay type: cell-based, human; conditions: 48 h; for Growth Percent: NCI-H23, 10 μM
In short: as §2

HS 578T = assay: NCI-60 SRB screening (one-dose and five-dose); assay type: cell-based, human; conditions: 48 h; for Growth Percent: 10 μM
In short: as §2

OVCAR-5 = assay: NCI-60 SRB screening (one-dose and five-dose); assay type: cell-based, human; conditions: 48 h; for Growth Percent: OVCAR-5, 10 μM
In short: as §2

SNB-75 = assay: NCI-60 SRB screening (one-dose and five-dose); assay type: cell-based, human; conditions: 48 h; for Growth Percent: SNB-75, 10 μM
In short: as §2

[2] = Homo sapiens, five dose 0.01–100 μM

## CC(=O)O[C@H]1CC[C@]2(C)[C@H]3CC[C@@H]4[C@H]5[C@H](C)[C@@]6(C)OC[C@]5(CC[C@@]4(C)[C@]3(C)CC[C@H]2C1(C)C)CC6C(C)=O (some centres unmarked) [Compound 1]
[1]; single dose 10 µM
  Antiproliferative / cytotoxic activity in words: completely lacks activity
LOX IMVI
  Growth Percent: 58.17%
TK-10
  Growth Percent: 109.75%
NCI-H522
  Growth Percent: 75.59%
NCI/ADR-RES
  Growth Percent: 96.25%
SK-MEL-2
  Growth Percent: 92.21%
UO-31
  Growth Percent: 95.19%
M14
  Growth Percent: 74.76%
BT-549
  Growth Percent: 96.17%
CCRF-CEM
  Growth Percent: 64.97%
CAKI-1
  Growth Percent: 74.02%
KM-12
  Growth Percent: 78.19%
MDA-MB-231/ATCC
  Growth Percent: 88.35%
NCI-H322M
  Growth Percent: 95.70%
OVCAR-3
  Growth Percent: 84.02%
NCI-H226
  Growth Percent: 91.65%
NCI-H460
  Growth Percent: 84.90%
NCI-H23
  Growth Percent: 84.77%
HS 578T
  Growth Percent: 98.58%
OVCAR-5
  Growth Percent: 97.46%
SNB-75
  Growth Percent: 106.15%

## C[C@H]1[C@@H]2[C@H]3CC[C@@H]4[C@@]5(C)C/C(=C\c6cccnc6)C(=O)C(C)(C)[C@@H]5CC[C@@]4(C)[C@]3(C)CC[C@]23CO[C@@]1(C)[C@@H](C(=O)/C=C/c1cccnc1)C3 [Compound 6, 3-Oxo-2-(3-pyridinylidene)-21-[3-(2E-pyridinyl)-prop-2-en-1-one]-20β,28-epoxy-18α,19βH-ursane]
[1]; Breast Cancer subpanel
  Selectivity index (SI): 0.96
[1]; CNS Cancer subpanel
  Selectivity index (SI): 0.96
[1]; Colon Cancer subpanel
  Selectivity index (SI): 1.10
[1]; Homo sapiens, five-dose testing, all cell lines, read-out: GI50 values, range over the NCI-60 panel
  GI50: 30 to 5900 nM
[1]; Leukemia subpanel
  Selectivity index (SI): 5.30
[1]; Melanoma subpanel
  Selectivity index (SI): 1.01
[1]; Non-Small Cell Lung Cancer subpanel
  Selectivity index (SI): 0.87
[1]; Ovarian Cancer subpanel
  Selectivity index (SI): 0.57
[1]; Prostate Cancer subpanel
  Selectivity index (SI): 1.86
[1]; Renal Cancer subpanel
  Selectivity index (SI): 1.01
LOX IMVI
  Growth Percent: −85.19%
LOX IMVI; [2]
  GI50: 890 nM
TK-10; Homo sapiens, TK-10, five dose 0.01–100 μM
  GI50: 1830 nM
TK-10
  Growth Percent: −14.49%
NCI-H522; Homo sapiens, NCI-H522, five dose 0.01–100 μM
  GI50: 1360 nM
NCI-H522
  Growth Percent: −34.35%
NCI/ADR-RES
  Growth Percent: 2.97%
NCI/ADR-RES; [2]
  GI50: 1700 nM
SK-MEL-2; Homo sapiens, SK-MEL-2, five dose 0.01–100 μM
  GI50: 1300 nM
SK-MEL-2
  Growth Percent: −25.53%
UO-31; Homo sapiens, UO-31, five dose 0.01–100 μM
  GI50: 640 nM
UO-31
  Growth Percent: −97.34%
M14; Homo sapiens, M14, five dose 0.01–100 μM
  GI50: 1740 nM
M14
  Growth Percent: −20.11%
BT-549
  Growth Percent: −20.09%
BT-549; Homo sapiens, BT-549, five dose 0.01–100 μM
  GI50: 730 nM
CCRF-CEM
  Growth Percent: 17.92%
CCRF-CEM; [2]
  GI50: 170 nM
CAKI-1
  Growth Percent: 9.32%
CAKI-1; Homo sapiens, CAKI-1, five dose 0.01–100 μM
  GI50: 1420 nM
KM-12; Homo sapiens, KM12, KM-12, five dose 0.01–100 μM
  GI50: 910 nM
KM-12
  Growth Percent: −55.61%
MDA-MB-231/ATCC
  Growth Percent: −30.71%
MDA-MB-231/ATCC; [2]
  GI50: 1030 nM
NCI-H322M
  Growth Percent: 46.39%
NCI-H322M; [2]
  GI50: 1820 nM
OVCAR-3; Homo sapiens, OVCAR-3, five dose 0.01–100 μM
  GI50: 880 nM
OVCAR-3
  Growth Percent: −43.66%
NCI-H226; Homo sapiens, NCI-H226, five dose 0.01–100 μM
  GI50: 1020 nM
NCI-H226
  Growth Percent: −13.51%
NCI-H460; Homo sapiens, NCI-H460, five dose 0.01–100 μM
  GI50: 890 nM
NCI-H460
  Growth Percent: −45.33%
NCI-H23; Homo sapiens, NCI-H23, five dose 0.01–100 μM
  GI50: 1040 nM
NCI-H23
  Growth Percent: −48.71%
HS 578T
  Growth Percent: 11.24%
HS 578T; [2]
  GI50: 1440 nM
OVCAR-5; Homo sapiens, OVCAR-5, five dose 0.01–100 μM
  GI50: 1460 nM
OVCAR-5
  Growth Percent: −4.00%
SNB-75; Homo sapiens, SNB-75, five dose 0.01–100 μM
  GI50: 1020 nM
SNB-75
  Growth Percent: 32.69%
